Experimental findings from patent US20160016951A1 (Merck Patent GmbH, priority 2014, published 2016) are described below.

This experiment addresses T1, CDK8 (CDK8/CycC) (Homo sapiens, UniProt P49336).
T1 construct: purchased Invitrogen PV4402
The experiment in a line: FRET based Lanthascreen binding competition assay. Conditions: 5 nM CDK8/CycC, 10 nM Alexa647-Tracer, 1% DMSO, 60 min at RT; read-out: IC50 CDK8 binding. Put shortly:
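CDK8 co-expressed with CycC and labelled through biotinylated anti-His antibody and streptavidin-Eu was preincubated with compound for 20 min at RT. An Alexa647 ATP-competitive probe was then added for 60 min at RT in the dark. Probe displacement was read as loss of TR-FRET (excitation 340 nm, emission 650 nm).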

Molecules are shown by their SMILES.

T1 sequence (P49336 whole entry): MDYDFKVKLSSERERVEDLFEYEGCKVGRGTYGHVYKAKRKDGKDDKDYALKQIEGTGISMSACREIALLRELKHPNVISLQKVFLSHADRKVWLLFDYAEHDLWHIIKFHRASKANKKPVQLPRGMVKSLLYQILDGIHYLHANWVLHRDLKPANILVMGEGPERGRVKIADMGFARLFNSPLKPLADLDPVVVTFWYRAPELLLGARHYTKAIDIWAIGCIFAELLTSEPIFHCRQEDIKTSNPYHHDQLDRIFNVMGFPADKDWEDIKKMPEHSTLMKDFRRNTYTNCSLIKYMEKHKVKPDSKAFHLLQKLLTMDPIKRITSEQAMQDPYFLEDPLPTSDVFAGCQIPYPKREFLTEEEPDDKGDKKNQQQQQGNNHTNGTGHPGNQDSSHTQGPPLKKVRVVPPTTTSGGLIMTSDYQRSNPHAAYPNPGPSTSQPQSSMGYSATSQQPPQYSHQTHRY
T1 sequence (P24863 whole entry partner): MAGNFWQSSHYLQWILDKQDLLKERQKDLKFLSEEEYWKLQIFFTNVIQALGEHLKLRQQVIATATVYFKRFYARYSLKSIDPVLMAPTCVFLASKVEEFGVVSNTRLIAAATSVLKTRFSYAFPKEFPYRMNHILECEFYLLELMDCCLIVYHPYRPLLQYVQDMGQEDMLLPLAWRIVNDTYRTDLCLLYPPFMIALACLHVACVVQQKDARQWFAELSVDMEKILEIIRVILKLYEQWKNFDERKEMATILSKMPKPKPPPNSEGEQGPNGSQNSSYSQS

With `CNc1ccc2cncc(-c3ccc(-c4cnn(C)c4)cc3)c2n1` [Compound 56, N-methyl-8-(4-(1-methyl-1H-pyrazol-4-yl)phenyl)-1,6-naphthyridin-2-amine], the IC50 lay within 0.101 to 0.5 µM. With `COCCNC(=O)c1ccc2cncc(-c3ccc(-c4cnn(C)c4)cc3)c2n1` [Compound 74, N-(2-Methoxyethyl)-8-(4-(1-methyl-1H-pyrazol-4-yl)phenyl)-1,6-naphthyridine-2-carboxamide], the IC50 is under 0.01 µM. As for `COC1CN(C(=O)c2ccc3cncc(-c4ccc5c(c4)CC(=O)N5C)c3c2)C1` [Compound 159, 5-[6-(3-Methoxy-azetidine-1-carbonyl)-isoquinolin-4-yl]-1-methyl-1,3-dihydro-indol-2-one], the figure is 0.01 to 0.1 µM; as for `CN(c1ccc2cncc(-c3ccc(-c4cnn(C)c4)cc3)c2c1)S(C)(=O)=O` [Compound 139, N-methyl-N-(4-(4-(1-methyl-1H-pyrazol-4-yl)phenyl)isoquinolin-6-yl)methanesulfonamide], 0.01 to 0.1 µM. Next, `COC1CN(C(=O)c2ccc3cncc(-c4ccc5c(cnn5C)c4)c3n2)C1` [Compound 22, (3-methoxyazetidin-1-yl)(8-(1-methyl-1H-indazol-5-yl)-1,6-naphthyridin-2-yl)methanone]: under 0.01 µM.
